≈ marks a conversion by molar mass, not a printed value.
Test system: E. coli
Assay: Erythromycin MIC quoted in legend of growth assay with and without erythromycin
Assay type: cell-based
Conditions: Escherichia coli
Experimental: E. coli MG1655 was used as wild-type. The ALE selected rpoBE564V and rpoBE672K knock in strains were previously constructed by allelic replacement^7. To generate additional variants of […] and 672 positions, MAGE was performed on the wild-type strain by first transformation of recombineering plasmid pKD46^46, then inactivation of mutS with two nonsense mutations at residues 189 and 191 using an oligo (mutS_MUT). […] To perform each cycle of MAGE, the 1-Red system was induced with 0.5%-arabinose 45 minutes prior to generation of electrocompetent cells and oligo. Batch cultures were done in flask with M9 minimal media and 4 g/L of glucose at 37° C. or LB rich media. Glucose limited chemostats were carried out in a Bioflo 110 fermentor (New Brunswick Scientific, NJ). Glucose supplemented M9 was added to the reactor at 0.31 and 0.44 h^−1 dilution rates controlled by a peristaltic pump. Steady state was achieved after 3-5 residence times and was verified by biomass measurements. Phenotypic tests were performed by inoculation of media with an overnight pre-culture of glucose M9 media for all cases. Erythromycin was added to the media to the indicated concentration. The pH of M9 was adjusted to the indicated value with 6M HCl. Different substrates and mixtures were added to M9 to test growth in the indicated conditions. […]

CC[C@H]1OC(=O)[C@H](C)[C@@H](O[C@H]2C[C@@](C)(OC)[C@@H](O)[C@H](C)O2)[C@H](C)[C@@H](O[C@@H]2O[C@H](C)C[C@H](N(C)C)[C@H]2O)[C@](C)(O)C[C@@H](C)C(=O)[C@H](C)[C@@H](O)[C@]1(C)O [erythromycin]
MIC: 512 to 1020 µg/mL (≈ 698 to 1400 µM)

— patent US10174307B2, “Performance enhancing genetic variants of E. coli” (priority 2014, dated 2019)
